Earlier results on 35 molecules are cited in patent US20100222262A1, “SUBSTITUTED 1, 3-CYCLOPENTADIONE ATTENUATED ENDOTHELIAL INFLAMMATION AND ENDOTHELIAL-MONOCYTE INTERACTIONS” (METAPROTEOMICS, LLC, priority 2008, published 2010).

This data set deals with 85 Kinases.

Like-named read-outs stand apart in the source and are kept apart here.

`CO[C@H]1[C@@H](OC)C[C@H](C)[C@@H](OC)C2=CC(=O)C=C(NC(=O)/C(C)=C/C=C\[C@H](OC)[C@@H](OC(N)=O)/C(C)=C/[C@@H]1C)C2=O` [Herbimycin A]: under “85 kinases, Concn 10 uM”, the “G10 (Gini coefficient)” value is on record as 0.534 and the “hit rate (>50% Inhibition)” value is given as 0.
As to `O=C1Cc2c([nH]c3ccc([N+](=O)[O-])cc23)-c2ccccc2N1` [Alsterpaullone], for the setting “85 kinases, Concn 1 uM”, the “G10 (Gini coefficient)” value is recorded as 0.633 and the “hit rate (>50% Inhibition)” value was 22.
As to `N#C/C(=C\c1ccc(O)c(O)c1)C(=O)c1ccc(O)c(O)c1` [AG538], where the note is “85 kinases, Concn 10 uM”, the “G10 (Gini coefficient)” value is given as 0.417 and the “hit rate (>50% Inhibition)” value is 17.
As to `C[C@@H](N)[C@H]1CC[C@H](C(=O)Nc2ccncc2)CC1` [Y27632], for the setting “85 kinases, Concn 10 uM”, the “G10 (Gini coefficient)” value is 0.628 and the “hit rate (>50% Inhibition)” value is on record as 13.
`Oc1ccc(-c2nc(-c3ccncc3)c(-c3ccc(F)cc3)[nH]2)cc1` [SB202190]: for the setting “85 kinases, Concn 10 uM”, the “G10 (Gini coefficient)” value is 0.553 and the “hit rate (>50% Inhibition)” value is listed as 29.
As to `Nc1ncnc2c1cnn2-c1ccccc1` [PP3], where the note is “85 kinases, Concn 1 uM”, the “G10 (Gini coefficient)” value is 0.634 and the “hit rate (>50% Inhibition)” value is recorded as 0.
As for `Cn1cnc2c(NCc3ccccc3)nc(NCCO)nc21` [Olomoucin], where the note is “85 kinases, Concn 50 uM”, the “G10 (Gini coefficient)” value was 0.556 and the “hit rate (>50% Inhibition)” value is listed as 13.
Consider `O=C(O[C@@H]1Cc2c(O)cc(O)cc2O[C@@H]1c1cc(O)c(O)c(O)c1)c1cc(O)c(O)c(O)c1` [EGCG], for which, for the setting “85 kinases, Concn 10 uM”, the “G10 (Gini coefficient)” value is 0.495 and the “hit rate (>50% Inhibition)” value is listed as 21.
Take `CN[C@@H]1C[C@H]2O[C@@](C)([C@@H]1OC)n1c3ccccc3c3c4c(c5c6ccccc6n2c5c31)C(=O)NC4` [Staurosporine]: the “G10 (Gini coefficient)” value (85 kinases, Concn 1 uM) is recorded as 0.093.
Consider `O=C(O)c1cc(N(Cc2ccccc2O)Cc2ccccc2O)ccc1O` [Lavendustin B], for which, where the note is “85 kinases, Concn 1 uM”, the “G10 (Gini coefficient)” value was 0.515 and the “hit rate (>50% Inhibition)” value is listed as 0.
Consider `CC(C)(C)n1nc(-c2ccc(Cl)cc2)c2c(N)ncnc21` [PP2], for which, for the setting “85 kinases, Concn 1 uM”, the “G10 (Gini coefficient)” value is listed as 0.722 and the “hit rate (>50% Inhibition)” value is reported as 14.
Take `O=S(=O)(c1cccc2cnccc12)N1CCCNCC1` [HA1077]: under “85 kinases, Concn 10 uM”, the “G10 (Gini coefficient)” value is 0.650 and the “hit rate (>50% Inhibition)” value is given as 19.
For the molecule `COc1cc2ncnc(Nc3cccc(Cl)c3)c2cc1OC` [AG1478], under “85 kinases, Concn 10 uM”, the “G10 (Gini coefficient)” value was 0.500 and the “hit rate (>50% Inhibition)” value is 25.
`CCCCCCOC(=O)[C@]1(O)C[C@@H]2O[C@@]1(C)n1c3ccccc3c3c4c(c5c6ccccc6n2c5c31)C(=O)NC4` [KT5720]: under “85 kinases, Concn 1 uM”, the “G10 (Gini coefficient)” value is 0.423 and the “hit rate (>50% Inhibition)” value is on record as 33.
For the molecule `O=S(=O)(NCCNC/C=C/c1ccc(Br)cc1)c1cccc2cnccc12` [H89], where the note is “85 kinases, Concn 10 uM”, the “G10 (Gini coefficient)” value was 0.442 and the “hit rate (>50% Inhibition)” value is on record as 34.
In the case of `O=C(O)c1cc(N(Cc2ccccc2O)Cc2cc(O)ccc2O)ccc1O` [Lavendustin A], for the setting “85 kinases, Concn 1 uM”, the “G10 (Gini coefficient)” value is 0.726 and the “hit rate (>50% Inhibition)” value is 0.
As for `O=c1cc(O)cc(/C=C/c2ccc(O)c(O)c2)o1` [Hispidin], for the setting “85 kinases, Concn 10 uM”, the “G10 (Gini coefficient)” value is reported as 0.790 and the “hit rate (>50% Inhibition)” value is 2.
Turning to `CC(C)(C)c1cc(C=C(C#N)C#N)cc(Br)c1O` [AG1024], under “85 kinases, Concn 10 uM”, the “G10 (Gini coefficient)” value is on record as 0.568 and the “hit rate (>50% Inhibition)” value is 11.
As for `O=C1NCc2c1c1c3ccccc3[nH]c1c1[nH]c3ccccc3c21` [K252c], under “85 kinases, Concn 10 uM”, the “G10 (Gini coefficient)” value is given as 0.236 and the “hit rate (>50% Inhibition)” value is on record as 58.
Take `N#CC(C#N)=C(N)/C(C#N)=C/c1cc(O)c(O)c(O)c1` [AG183]: for the setting “85 kinases, Concn 10 uM”, the “G10 (Gini coefficient)” value was 0.460 and the “hit rate (>50% Inhibition)” value is reported as 14.
For the molecule `O=c1c(-c2ccc(O)cc2)coc2cc(O)cc(O)c12` [Genistein], where the note is “85 kinases, Concn 10 uM”, the “G10 (Gini coefficient)” value is given as 0.582 and the “hit rate (>50% Inhibition)” value was 0.
Take `O=C(NOCC1CC1)c1ccc(F)c(F)c1Nc1ccc(I)cc1Cl` [PD184352]: for the setting “85 kinases, Concn 10 uM”, the “G10 (Gini coefficient)” value was 0.802 and the “hit rate (>50% Inhibition)” value was 1.
With `CC[C@H](CO)Nc1nc(NCc2ccccc2)c2ncn(C(C)C)c2n1` [Roscovitine], the “G10 (Gini coefficient)” value is given as 0.744 and the “hit rate (>50% Inhibition)” value is listed as 10.
Turning to `CN(C)S(=O)(=O)c1ccc2c(c1)/C(=C/c1cc3c([nH]1)CCCC3)C(=O)N2` [SU6656], under “85 kinases, Concn 1 uM”, the “G10 (Gini coefficient)” value was 0.607 and the “hit rate (>50% Inhibition)” value is given as 19.
`O=C1c2ccccc2-c2n[nH]c3cccc1c23` [JNK inh II]: for the setting “85 kinases, Concn 10 uM”, the “G10 (Gini coefficient)” value was 0.445 and the “hit rate (>50% Inhibition)” value is listed as 35.
Take `COc1cc(/C=C/C(=O)CC(=O)/C=C/c2ccc(O)c(OC)c2)ccc1O` [Curcumin]: where the note is “85 kinases, Concn 50 uM”, the “G10 (Gini coefficient)” value is 0.417 and the “hit rate (>50% Inhibition)” value is listed as 38.
`CCOc1cc(/C=C(\C#N)C(N)=O)cc(CSc2ccccc2)c1O` [ST638]: for the setting “85 kinases, Concn 10 uM”, the “G10 (Gini coefficient)” value is 0.568 and the “hit rate (>50% Inhibition)” value is listed as 14.
Regarding `N#CC(C#N)=Cc1ccc(O)c(O)c1` [AG18], where the note is “85 kinases, Concn 10 uM”, the “G10 (Gini coefficient)” value was 0.680 and the “hit rate (>50% Inhibition)” value is 1.
Regarding Calphostin C, where the note is “85 kinases, Concn 10 uM”, the “G10 (Gini coefficient)” value is 0.606 and the “hit rate (>50% Inhibition)” value is given as 2.
As to `Cn1cc(C2=C(c3cn(CCCSC(=N)N)c4ccccc34)C(=O)NC2=O)c2ccccc21` [Ro31-8220], for the setting “85 kinases, Concn 1 uM”, the “G10 (Gini coefficient)” value is 0.432 and the “hit rate (>50% Inhibition)” value is recorded as 39.
As for `Cc1ccc(NC(=O)c2cccc(N(C)C)c2)cc1NC(=O)c1ccc(O)cc1` [ZM336372], for the setting “85 kinases, Concn 10 uM”, the “G10 (Gini coefficient)” value is on record as 0.635 and the “hit rate (>50% Inhibition)” value is given as 11.
Regarding `C[S+]([O-])c1ccc(-c2nc(-c3ccncc3)c(-c3ccc(F)cc3)[nH]2)cc1` (stereo not drawn) [SB203580], the “G10 (Gini coefficient)” value is reported as 0.621 and the “hit rate (>50% Inhibition)” value is 17.
In the case of `CC(=O)c1c(O)c(C)c(O)c(Cc2c(O)c3c(c(C(=O)/C=C/c4ccccc4)c2O)OC(C)(C)C=C3)c1O` [Rottlerin], for the setting “85 kinases, Concn 10 uM”, the “G10 (Gini coefficient)” value is recorded as 0.595 and the “hit rate (>50% Inhibition)” value is listed as 3.
In the case of `COc1cc2ncnc(Nc3cccc(Br)c3)c2cc1OC` [PD153035], under “85 kinases, Concn 0.001 uM”, the “G10 (Gini coefficient)” value is on record as 0.616 and the “hit rate (>50% Inhibition)” value is recorded as 0.
As for `COc1cc2ncc(-c3ccccc3)nc2cc1OC` [AG1296], where the note is “85 kinases, Concn 10 uM”, the “G10 (Gini coefficient)” value was 0.498 and the “hit rate (>50% Inhibition)” value is given as 4.
